Consider 1 compound from ChEMBL document CHEMBL1143441, “New classes of Gram-positive selective antibacterials: inhibitors of MRSA and surrogates of the causative agents of anthrax and tuberculosis” (2008).

Usually MIC stands for the lowest concentration found to suppress growth.

This test deals with Mycobacterium tuberculosis. In words: Antimicrobial activity against Mycobacterium bovis BCG by NCCLS M7-A6 method. In kind it is functional. The settings on record: variant bovis BCG.

SMILES strings stand for the structures. Values after ≈ are worked out from the molar mass of the structure shown.

As for `COc1cc(O)cc(/C=C/c2ccccc2)c1` [PINOSYLVIN METHYL ETHER], inhibition of growth (MIC) required 26 µg/mL (≈ 115 µM).
